According to PMC10451623 (Antioxidants, 2023):

Key:
[1] = molecular target: T1, PPARα-LBD (Homo sapiens, UniProt Q07869); assay: TR-FRET PGC1α coactivator recruitment assay; format: biochemical; design: Human PPARα-LBD (amino acids 200–468); made in house; host or cells: Rosetta (DE3) pLysS (E. coli); conditions: PGC1α peptide, read-out: EC50, PGC1α recruitment to PPARα-LBD
T1 sequence (Q07869 200-468): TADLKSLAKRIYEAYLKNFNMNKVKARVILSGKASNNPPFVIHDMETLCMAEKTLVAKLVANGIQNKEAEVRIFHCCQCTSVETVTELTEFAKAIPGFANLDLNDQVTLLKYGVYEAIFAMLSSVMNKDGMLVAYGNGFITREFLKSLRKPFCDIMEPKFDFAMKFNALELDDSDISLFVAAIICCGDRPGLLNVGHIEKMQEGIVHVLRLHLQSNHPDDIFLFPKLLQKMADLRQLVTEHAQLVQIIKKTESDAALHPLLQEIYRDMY
Description: (§1) Subsequently, 5 µL of 4 nM Eu-W1024-labeled anti-6×His antibody/80 nM ULight-Streptavidin (PerkinElmer) was added to each well, and the microplate was incubated in the dark for 2 h, at room temperature. […] The nonlinear fitting and the calculation of the EC50 were performed using the Prism 9 software (GraphPad, San Diego, CA, USA).
(§2) The ligand-bound activated forms of PPARs are stabilized by associations with specific coactivators, thereby enabling the regulation of specific gene expression.
(§3) Figure 2 TR-FRET-based LBD-mediated human PPARα/δ/γ coactivator recruitment assay. […] Data are presented as the mean ± SE of three or four independent experiments with duplicate samples, and the calculated EC50 values are shown.

[2] = molecular target: T1, PPARα-LBD; assay: Thermal stability assay using circular dichroism spectroscopy; format: binding; design: Human PPARα-LBD (amino acids 200–468); His tag (pET28a) (N); made in house; host or cells: Rosetta (DE3) pLysS (E. coli); conditions: CD at 222 nm; 10 µM LBD; GW7647 at 10 µM
Description: PPARα/δ/γ-LBD proteins (10 µM) were incubated with different concentrations of ligands in buffer C consisting of 20 mM Tris-HCl (pH 8.0), 150 mM NaCl, 1 mM Tris 2-carboxyethylphosphine (TCEP)-HCl, and 10% glycerol. The circular dichroism (CD) spectra were monitored within a 200–260 nm range at increasing temperatures from 30 °C to 70 °C (2 °C/min) using a J-1500 spectropolarimeter equipped with a PTC-510 thermal controller (JASCO, Tokyo, Japan). […] The ligand-induced increases in the Tm values were defined as ∆Tm.
Nuclear receptors, including PPARs, display an increased thermal stability upon ligand binding, which is detectable through CD spectroscopy.
Figure 3 Circular dichroism-based PPARα/δ/γ-LBD thermal stability assay. […] Data are presented as the mean ± SE of three or four (in parentheses) independent experiments. Differences vs. basal levels (with 0.1% DMSO) were statistically assessed by one-way ANOVA, followed by a Dunnett’s post hoc test: * p < 0.05, ** p < 0.01, and *** p < 0.001.

[3] = molecular target: T2, PPARδ-LBD (Homo sapiens, UniProt Q03181); assay: TR-FRET PGC1α coactivator recruitment assay; format: biochemical; design: PPARδ-LBD (amino acids 170–441); made in house; host or cells: Rosetta (DE3) pLysS (E. coli); conditions: for EC50: TR-FRET, PGC1α peptide, read-out: EC50, PGC1α recruitment to PPARδ-LBD
T2 sequence (Q03181 170-441): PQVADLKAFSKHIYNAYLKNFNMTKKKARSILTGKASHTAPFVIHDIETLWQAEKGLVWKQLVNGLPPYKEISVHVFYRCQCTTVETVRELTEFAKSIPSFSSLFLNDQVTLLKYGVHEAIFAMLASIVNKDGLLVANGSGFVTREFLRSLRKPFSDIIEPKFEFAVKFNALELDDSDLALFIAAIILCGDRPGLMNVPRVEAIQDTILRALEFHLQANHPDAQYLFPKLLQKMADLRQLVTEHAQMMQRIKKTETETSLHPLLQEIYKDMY
Description: as §1, §2, §3

[4] = molecular target: T3, PPARγ-LBD (Homo sapiens, UniProt P37231); assay: TR-FRET PGC1α coactivator recruitment assay; format: biochemical; design: PPARγ-LBD (amino acids 203–477 in isoform 1); made in house; host or cells: Rosetta (DE3) pLysS (E. coli); conditions: PGC1α peptide, read-out: EC50, PGC1α recruitment to PPARγ-LBD
T3 sequence (P37231 203-477 isoform P37231-2): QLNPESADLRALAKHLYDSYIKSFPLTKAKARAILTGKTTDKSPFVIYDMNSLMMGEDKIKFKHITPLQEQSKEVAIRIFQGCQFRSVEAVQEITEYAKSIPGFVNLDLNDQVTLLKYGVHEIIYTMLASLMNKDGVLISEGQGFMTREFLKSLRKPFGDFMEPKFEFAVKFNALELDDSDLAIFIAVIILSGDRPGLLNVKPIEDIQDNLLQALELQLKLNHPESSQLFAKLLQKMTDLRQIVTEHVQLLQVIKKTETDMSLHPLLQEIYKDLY
Description: as §1, §2, §3

CCO[C@@H](Cc1ccc(OCCn2c(C)ccc2-c2ccc(SC)cc2)cc1)C(=O)O [saroglitazar]
EC50 [1]: 4.11 µM
Effect on Tm of PPARα-LBD (in words) [2]: highly increased the Tm values
EC50 [3]: > 100 µM
EC50 [4]: 1.03 µM

CSc1ccc(C(=O)/C=C/c2cc(C)c(OC(C)(C)C(=O)O)c(C)c2)cc1 [elafibranor]
EC50 [1]: 6.93 µM
Effect on Tm of PPARα-LBD (in words) [2]: did not significantly alter the Tm values
EC50 [4]: 15.5 µM

CCO[C@H](COc1ccc(C(F)(F)F)cc1)CSc1ccc(OCC(=O)O)c(C)c1 [seladelpar]
EC50 [1]: 3.84 µM
Effect on Tm of PPARα-LBD (in words) [2]: increased the Tm values
Efficacy, PGC1α recruitment to PPARδ-LBD ([3]; 100% = 1 µM GW501516): 124%
EC50 [3]: 0.0307 µM
EC50 [4]: 19.4 µM

O=C(O)CCCc1cc2cc(Cl)ccc2n1S(=O)(=O)c1ccc2ncsc2c1 [lanifibranor]
EC50 [1]: 10 µM
Effect on Tm of PPARα-LBD (in words) [2]: increased the Tm values
EC50 [3]: 3.86 µM
EC50 [4]: 4.65 µM
